Results published in ChEMBL document CHEMBL1177794, “Broad spectrum alkynyl inhibitors of T315I Bcr-Abl” (Bioorg Med Chem Lett, 2010).

Experiments:
[1] = system: Tyrosine-protein kinase ABL1 (Homo sapiens), P00519 [T315I]; assay: Inhibition of phosphorylated ABL1 T315I mutant at 10 uM; conditions: values are per cent of control
[2] = target: Dual specificity protein kinase CLK2 (Homo sapiens) (UniProt P49760); assay: Inhibition of CLK2 at 10 uM; conditions: values are per cent of control
[3] = target: Ephrin type-B receptor 1 (Homo sapiens) (UniProt P54762); assay: Inhibition of EPHB1 at 10 uM; conditions: values are per cent of control
[4] = target: Ephrin type-B receptor 6 (Homo sapiens) (UniProt O15197); assay: Inhibition of EPHB6 at 10 uM; conditions: values are per cent of control
[5] = target: Mitogen-activated protein kinase 15 (Homo sapiens) (UniProt Q8TD08); assay: Inhibition of ERK8 at 10 uM; conditions: values are per cent of control
[6] = target: Fibroblast growth factor receptor 1 (Homo sapiens) (UniProt P11362); assay: Inhibition of FGFR1 at 10 uM; conditions: values are per cent of control
Chain of Fibroblast growth factor receptor 1 (Homo sapiens) (P11362 22-822 limits assumed): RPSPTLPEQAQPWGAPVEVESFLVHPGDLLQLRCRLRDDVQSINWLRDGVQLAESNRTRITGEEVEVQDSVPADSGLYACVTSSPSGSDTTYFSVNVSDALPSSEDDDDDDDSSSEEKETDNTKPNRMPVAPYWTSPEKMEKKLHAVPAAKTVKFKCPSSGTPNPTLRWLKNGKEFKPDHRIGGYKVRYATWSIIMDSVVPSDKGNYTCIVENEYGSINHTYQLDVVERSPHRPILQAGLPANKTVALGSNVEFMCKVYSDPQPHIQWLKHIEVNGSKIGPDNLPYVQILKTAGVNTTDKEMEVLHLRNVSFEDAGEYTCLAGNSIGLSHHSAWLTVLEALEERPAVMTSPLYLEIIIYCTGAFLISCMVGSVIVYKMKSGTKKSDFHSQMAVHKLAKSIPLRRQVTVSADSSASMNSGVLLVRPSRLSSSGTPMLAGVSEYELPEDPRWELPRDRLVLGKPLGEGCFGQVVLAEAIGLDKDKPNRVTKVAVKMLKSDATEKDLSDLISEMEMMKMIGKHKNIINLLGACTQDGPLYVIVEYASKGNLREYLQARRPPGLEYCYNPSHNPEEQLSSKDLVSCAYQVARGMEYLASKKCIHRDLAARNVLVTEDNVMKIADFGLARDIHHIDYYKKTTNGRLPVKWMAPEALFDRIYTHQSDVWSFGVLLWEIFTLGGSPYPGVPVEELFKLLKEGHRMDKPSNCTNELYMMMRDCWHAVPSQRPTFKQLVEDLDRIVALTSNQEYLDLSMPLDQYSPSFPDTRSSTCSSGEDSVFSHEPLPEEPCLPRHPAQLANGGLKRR

[7] = target: Receptor-type tyrosine-protein kinase FLT3 (Homo sapiens) (UniProt P36888); assay: Inhibition of FLT3 at 10 uM; conditions: values are per cent of control
[8] = target: Tyrosine-protein kinase FRK (Homo sapiens) (UniProt P42685); assay: Inhibition of FRK at 10 uM; conditions: values are per cent of control
[9] = target: Insulin receptor-related protein (Homo sapiens) (UniProt P14616); assay: Inhibition of INSRR at 10 uM; conditions: values are per cent of control
[10] = target: LIM domain kinase 2 (Homo sapiens) (UniProt P53671); assay: Inhibition of LIMK2 at 10 uM; conditions: values are per cent of control
[11] = target: Mitogen-activated protein kinase kinase kinase 4 (Homo sapiens) (UniProt Q9Y6R4); assay: Inhibition of MAP3K4 at 10 uM; conditions: values are per cent of control
[12] = target: Mitogen-activated protein kinase kinase kinase kinase 4 (Homo sapiens) (UniProt O95819); assay: Inhibition of MAP4K4 at 10 uM; conditions: values are per cent of control
[13] = target: Serine/threonine-protein kinase MARK1 (Homo sapiens) (UniProt Q9P0L2); assay: Inhibition of MARK1 at 10 uM; conditions: values are per cent of control
[14] = target: Dual specificity mitogen-activated protein kinase kinase 4 (Homo sapiens) (UniProt P45985); assay: Inhibition of MEK4 at 10 uM; conditions: values are per cent of control
[15] = target: Dual specificity mitogen-activated protein kinase kinase 6 (Homo sapiens) (UniProt P52564); assay: Inhibition of MEK6 at 10 uM; conditions: values are per cent of control
Chain of Dual specificity mitogen-activated protein kinase kinase 6 (Homo sapiens) (P52564 whole entry): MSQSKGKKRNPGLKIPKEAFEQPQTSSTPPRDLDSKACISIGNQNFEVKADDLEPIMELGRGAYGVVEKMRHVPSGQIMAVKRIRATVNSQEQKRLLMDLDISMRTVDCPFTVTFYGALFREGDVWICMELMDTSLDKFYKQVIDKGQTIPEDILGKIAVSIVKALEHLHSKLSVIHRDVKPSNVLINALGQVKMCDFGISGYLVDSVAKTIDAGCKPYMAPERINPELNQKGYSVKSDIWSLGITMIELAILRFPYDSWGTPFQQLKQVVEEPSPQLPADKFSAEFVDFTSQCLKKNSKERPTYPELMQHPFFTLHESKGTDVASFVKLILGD

[16] = target: Myosin-IIIa (Homo sapiens) (UniProt Q8NEV4); assay: Inhibition of MYO3A at 10 uM
Chain of Myosin-IIIa (Homo sapiens) (Q8NEV4 whole entry): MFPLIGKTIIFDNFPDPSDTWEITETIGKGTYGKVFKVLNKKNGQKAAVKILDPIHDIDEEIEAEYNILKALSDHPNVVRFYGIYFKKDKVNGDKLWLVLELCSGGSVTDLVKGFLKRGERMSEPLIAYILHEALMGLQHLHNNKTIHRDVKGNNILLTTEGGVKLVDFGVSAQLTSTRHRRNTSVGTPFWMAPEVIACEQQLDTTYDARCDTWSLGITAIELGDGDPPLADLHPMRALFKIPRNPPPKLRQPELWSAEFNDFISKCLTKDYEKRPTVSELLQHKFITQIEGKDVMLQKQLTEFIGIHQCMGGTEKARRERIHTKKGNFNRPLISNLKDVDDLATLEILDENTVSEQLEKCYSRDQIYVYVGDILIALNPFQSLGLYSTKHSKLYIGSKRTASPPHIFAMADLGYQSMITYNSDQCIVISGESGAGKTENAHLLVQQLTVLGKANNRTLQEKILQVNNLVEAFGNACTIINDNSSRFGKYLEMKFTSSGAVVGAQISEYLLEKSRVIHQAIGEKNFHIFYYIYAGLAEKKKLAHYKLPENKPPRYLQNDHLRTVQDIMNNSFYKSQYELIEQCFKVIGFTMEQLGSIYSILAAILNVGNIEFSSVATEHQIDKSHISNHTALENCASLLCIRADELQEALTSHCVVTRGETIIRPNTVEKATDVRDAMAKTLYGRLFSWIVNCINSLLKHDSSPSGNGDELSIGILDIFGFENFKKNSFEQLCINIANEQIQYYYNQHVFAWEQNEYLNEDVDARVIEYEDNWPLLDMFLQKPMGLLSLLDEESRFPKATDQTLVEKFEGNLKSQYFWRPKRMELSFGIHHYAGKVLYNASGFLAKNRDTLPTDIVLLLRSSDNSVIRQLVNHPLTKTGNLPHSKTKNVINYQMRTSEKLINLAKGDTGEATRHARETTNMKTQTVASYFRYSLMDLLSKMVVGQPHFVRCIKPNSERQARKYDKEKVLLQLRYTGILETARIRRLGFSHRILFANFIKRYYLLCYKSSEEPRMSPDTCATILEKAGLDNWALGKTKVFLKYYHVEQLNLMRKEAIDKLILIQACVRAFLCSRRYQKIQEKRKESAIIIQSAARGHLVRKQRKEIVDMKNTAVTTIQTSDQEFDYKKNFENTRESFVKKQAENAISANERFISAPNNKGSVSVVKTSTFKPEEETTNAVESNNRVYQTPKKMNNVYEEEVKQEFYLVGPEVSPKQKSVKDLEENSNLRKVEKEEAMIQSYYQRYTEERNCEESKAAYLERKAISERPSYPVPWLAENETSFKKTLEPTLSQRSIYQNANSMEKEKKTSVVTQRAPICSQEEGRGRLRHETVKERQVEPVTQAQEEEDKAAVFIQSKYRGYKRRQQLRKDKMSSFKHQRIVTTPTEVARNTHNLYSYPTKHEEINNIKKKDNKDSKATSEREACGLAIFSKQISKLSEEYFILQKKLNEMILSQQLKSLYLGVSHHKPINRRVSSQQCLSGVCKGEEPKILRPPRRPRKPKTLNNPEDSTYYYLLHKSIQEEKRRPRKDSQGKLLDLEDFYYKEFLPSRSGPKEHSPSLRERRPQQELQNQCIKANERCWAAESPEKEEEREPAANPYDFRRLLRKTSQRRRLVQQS

[17] = target: SRSF protein kinase 1 (Homo sapiens) (UniProt Q96SB4); assay: Inhibition of SRPK1 at 10 uM
[18] = target: Activated CDC42 kinase 1 (Homo sapiens) (UniProt Q07912); assay: Inhibition of TNK2 at 10 uM; conditions: values are per cent of control
Chain of Activated CDC42 kinase 1 (Homo sapiens) (Q07912 whole entry, looked up): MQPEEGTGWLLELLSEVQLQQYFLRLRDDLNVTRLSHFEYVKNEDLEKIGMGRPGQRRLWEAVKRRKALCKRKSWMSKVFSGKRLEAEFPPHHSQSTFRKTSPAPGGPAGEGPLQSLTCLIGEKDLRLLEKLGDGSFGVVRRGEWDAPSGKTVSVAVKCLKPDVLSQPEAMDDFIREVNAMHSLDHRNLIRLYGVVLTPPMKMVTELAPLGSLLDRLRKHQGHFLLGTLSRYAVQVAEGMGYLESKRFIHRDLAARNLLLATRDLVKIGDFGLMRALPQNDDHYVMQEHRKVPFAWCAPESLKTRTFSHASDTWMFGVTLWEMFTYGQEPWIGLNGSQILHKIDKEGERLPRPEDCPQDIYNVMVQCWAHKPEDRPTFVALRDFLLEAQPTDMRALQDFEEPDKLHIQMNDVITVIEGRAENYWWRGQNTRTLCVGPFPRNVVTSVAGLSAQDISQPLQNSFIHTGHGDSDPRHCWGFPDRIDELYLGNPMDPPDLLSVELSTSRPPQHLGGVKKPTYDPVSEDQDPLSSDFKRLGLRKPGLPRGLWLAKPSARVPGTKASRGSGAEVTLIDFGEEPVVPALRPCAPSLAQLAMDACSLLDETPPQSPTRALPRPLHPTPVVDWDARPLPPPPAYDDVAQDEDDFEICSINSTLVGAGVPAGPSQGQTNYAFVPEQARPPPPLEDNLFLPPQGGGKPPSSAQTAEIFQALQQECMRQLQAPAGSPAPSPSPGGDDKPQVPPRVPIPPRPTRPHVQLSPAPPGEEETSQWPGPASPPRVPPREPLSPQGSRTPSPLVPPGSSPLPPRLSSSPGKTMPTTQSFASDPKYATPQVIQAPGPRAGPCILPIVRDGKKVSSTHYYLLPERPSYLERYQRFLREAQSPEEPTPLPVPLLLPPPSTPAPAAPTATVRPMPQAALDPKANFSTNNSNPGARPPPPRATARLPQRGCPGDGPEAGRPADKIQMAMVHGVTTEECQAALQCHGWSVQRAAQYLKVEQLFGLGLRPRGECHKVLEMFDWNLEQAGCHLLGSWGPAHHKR

[19] = target: Testis-specific serine/threonine-protein kinase 1 (Homo sapiens) (UniProt Q9BXA7); assay: Inhibition of TSSK1B at 10 uM; conditions: values are per cent of control
[20] = target: Serine/threonine-protein kinase 32B (Homo sapiens) (UniProt Q9NY57); assay: Inhibition of YANK2 at 10 uM; conditions: values are per cent of control
[21] = target: Cyclin-dependent kinase 18 (Homo sapiens) (UniProt Q07002); assay: Inhibition of PCTK3 at 10 uM; conditions: values are per cent of control
[22] = target: Cyclin-dependent kinase 15 (Homo sapiens) (UniProt Q96Q40); assay: Inhibition of PFTAIRE2 at 10 uM; conditions: values are per cent of control
[23] = system: Phosphatidylinositol 4,5-bisphosphate 3-kinase catalytic subunit alpha isoform (Homo sapiens), P42336 [C420R]; assay: Inhibition of PIK3CA C420R mutant at 10 uM
[24] = target: Phosphatidylinositol 4,5-bisphosphate 3-kinase catalytic subunit gamma isoform (Homo sapiens) (UniProt P48736); assay: Inhibition of PIK3CG at 10 uM
[25] = target: Phosphatidylinositol 4-kinase beta (Homo sapiens) (UniProt Q9UBF8); assay: Inhibition of PIK4CB at 10 uM
[26] = target: Phosphatidylinositol 5-phosphate 4-kinase type-2 beta (Homo sapiens) (UniProt P78356); assay: Inhibition of PIP5K2B at 10 uM
[27] = target: Serine/threonine-protein kinase PLK3 (Homo sapiens) (UniProt Q9H4B4); assay: Inhibition of PLK3 at 10 uM
[28] = target: Serine/threonine-protein kinase PLK4 (Homo sapiens) (UniProt O00444); assay: Inhibition of PLK4 at 10 uM
[29] = target: Serine/threonine-protein kinase RIO1 (Homo sapiens) (UniProt Q9BRS2); assay: Inhibition of RIOK1 at 10 uM
[30] = target: Receptor-interacting serine/threonine-protein kinase 4 (Homo sapiens) (UniProt P57078); assay: Inhibition of RIPK4 at 10 uM
[31] = target: Ribosomal protein S6 kinase alpha-1 (Homo sapiens) (UniProt Q15418); assay: Inhibition of RSK1 N-terminal domain1 at 10 uM
[32] = target: Serine/threonine-protein kinase SIK2 (Homo sapiens) (UniProt Q9H0K1); assay: Inhibition of SIK2 at 10 uM
[33] = target: Proto-oncogene tyrosine-protein kinase Src (Homo sapiens) (UniProt P12931); assay: Inhibition of SRC at 10 uM; values are per cent of control
[34] = target: Cyclin-dependent kinase 8 (Homo sapiens) (UniProt P49336); assay: Inhibition of CDK8 at 10 uM; values are per cent of control
[35] = target: Cyclin-dependent kinase 9 (Homo sapiens) (UniProt P50750); assay: Inhibition of CDK9 at 10 uM; values are per cent of control
[36] = target: Serine/threonine-protein kinase BRSK2 (Homo sapiens) (UniProt Q8IWQ3); assay: Inhibition of BRSK2 at 10 uM; values are per cent of control
[37] = target: Cyclin-dependent kinase 13 (Homo sapiens) (UniProt Q14004); assay: Inhibition of CDC2L5 at 10 uM; values are per cent of control
[38] = target: Platelet-derived growth factor receptor beta (Homo sapiens) (UniProt P09619); assay: Inhibition of PDGFRB at 10 uM; values are per cent of control
[39] = target: Casein kinase I isoform gamma-1 (Homo sapiens) (UniProt Q9HCP0); assay: Inhibition of CSNK1G1 at 10 uM; values are per cent of control
[40] = target: CDK4/Cyclin D3 (Homo sapiens) (UniProt P11802+P30281); assay: Inhibition of CDK4/cyclin D3 at 10 uM; values are per cent of control
[41] = system: Proto-oncogene tyrosine-protein kinase receptor Ret (Homo sapiens), P07949 [V804M]; assay: Inhibition of RET V804M mutant at 10 uM; values are per cent of control
Chain of Proto-oncogene tyrosine-protein kinase receptor Ret (Homo sapiens), P07949 [V804M] (P07949 whole entry V804M, the tested form may be a part): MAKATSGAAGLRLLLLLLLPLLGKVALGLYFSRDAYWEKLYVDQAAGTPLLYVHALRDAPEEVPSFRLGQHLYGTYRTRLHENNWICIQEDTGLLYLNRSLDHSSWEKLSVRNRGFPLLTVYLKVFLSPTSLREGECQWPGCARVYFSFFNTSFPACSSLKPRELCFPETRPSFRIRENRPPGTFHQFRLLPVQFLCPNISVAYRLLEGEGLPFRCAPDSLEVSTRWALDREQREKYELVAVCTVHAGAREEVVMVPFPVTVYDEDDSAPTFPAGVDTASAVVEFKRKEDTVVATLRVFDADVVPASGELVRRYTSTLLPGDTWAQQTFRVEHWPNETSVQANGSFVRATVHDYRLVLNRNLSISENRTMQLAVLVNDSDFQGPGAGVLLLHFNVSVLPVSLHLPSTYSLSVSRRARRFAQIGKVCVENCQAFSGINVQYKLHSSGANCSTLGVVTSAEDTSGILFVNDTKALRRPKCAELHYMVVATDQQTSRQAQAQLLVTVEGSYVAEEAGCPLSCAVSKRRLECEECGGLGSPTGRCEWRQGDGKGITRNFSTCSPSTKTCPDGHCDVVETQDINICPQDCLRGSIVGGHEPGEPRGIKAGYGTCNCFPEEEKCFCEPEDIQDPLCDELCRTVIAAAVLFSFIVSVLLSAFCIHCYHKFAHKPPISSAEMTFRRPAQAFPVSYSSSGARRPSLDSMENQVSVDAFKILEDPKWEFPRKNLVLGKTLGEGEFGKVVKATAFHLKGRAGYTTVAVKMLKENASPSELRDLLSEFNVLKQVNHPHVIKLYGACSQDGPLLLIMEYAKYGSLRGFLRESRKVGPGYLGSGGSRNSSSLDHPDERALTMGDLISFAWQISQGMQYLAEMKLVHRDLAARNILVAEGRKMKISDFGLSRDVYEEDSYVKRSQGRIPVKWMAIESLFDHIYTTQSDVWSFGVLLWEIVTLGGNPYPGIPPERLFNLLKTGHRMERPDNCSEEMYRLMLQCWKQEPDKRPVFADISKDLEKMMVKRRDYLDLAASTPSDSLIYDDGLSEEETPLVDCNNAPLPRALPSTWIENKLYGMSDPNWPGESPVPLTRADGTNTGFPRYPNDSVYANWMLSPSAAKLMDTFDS

[42] = target: Tyrosine-protein kinase JAK1 (Homo sapiens) (UniProt P23458); assay: Inhibition of JAK1 JH1 catalytic domain at 10 uM; values are per cent of control

CCN1CCN(Cc2ccc(NC(=O)c3ccc(C)c(C#Cc4cccnc4)c3)cc2C(F)(F)F)CC1
residual binding, % of control [1]: 2.6% | residual binding, % of control [2]: 88% | residual binding, % of control [3]: 0.5% | residual binding, % of control [4]: 8.8% | residual binding, % of control [5]: 1.8% | residual binding, % of control [6]: 0.25% | residual binding, % of control [7]: 0.25% | residual binding, % of control [8]: 0.15% | residual binding, % of control [9]: 79% | residual binding, % of control [10]: 11% | residual binding, % of control [11]: 100% | residual binding, % of control [12]: 3.3% | residual binding, % of control [13]: 83% | residual binding, % of control [14]: 43% | residual binding, % of control [15]: 100% | inhibition [16]: 3.2% | inhibition [17]: 100% | residual binding, % of control [18]: 11% | residual binding, % of control [19]: 92% | residual binding, % of control [20]: 100% | residual binding, % of control [21]: 6.2% | residual binding, % of control [22]: 6.4% | inhibition [23]: 72% | inhibition [24]: 100% | inhibition [25]: 100% | inhibition [26]: 58% | inhibition [27]: 90% | inhibition [28]: 88% | inhibition [29]: 90% | inhibition [30]: 48% | inhibition [31]: 53% | inhibition [32]: 21% | % of control [33]: 0% | level, % of control [34]: 8.2% | level, % of control [35]: 52% | level, % of control [36]: 81% | level, % of control [37]: 6.5% | level, % of control [38]: 0% | level, % of control [39]: 100% | level, % of control [40]: 54% | level, % of control [41]: 0% | level, % of control [42]: 6.2%

CCN1CCN(Cc2ccc(NC(=O)c3ccc(C)c(C#Cc4cnc5[nH]ccc5c4)c3)cc2C(F)(F)F)CC1
residual binding, % of control [1]: 0.9% | residual binding, % of control [2]: 100% | residual binding, % of control [3]: 0.35% | residual binding, % of control [4]: 0.85% | residual binding, % of control [5]: 2.6% | residual binding, % of control [6]: 0.15% | residual binding, % of control [7]: 0.15% | residual binding, % of control [8]: 0.15% | residual binding, % of control [9]: 68% | residual binding, % of control [10]: 0.35% | residual binding, % of control [11]: 62% | residual binding, % of control [12]: 1.8% | residual binding, % of control [13]: 100% | residual binding, % of control [14]: 25% | residual binding, % of control [15]: 88% | inhibition [16]: 15% | inhibition [17]: 100% | residual binding, % of control [18]: 0.6% | residual binding, % of control [19]: 98% | residual binding, % of control [20]: 100% | residual binding, % of control [21]: 12% | residual binding, % of control [22]: 2% | inhibition [23]: 95% | inhibition [24]: 100% | inhibition [25]: 100% | inhibition [26]: 7.7% | inhibition [27]: 92% | inhibition [28]: 97% | inhibition [29]: 53% | inhibition [30]: 8% | inhibition [31]: 34% | inhibition [32]: 18% | % of control [33]: 0.05% | level, % of control [34]: 18% | level, % of control [35]: 31% | level, % of control [36]: 90% | level, % of control [37]: 13% | level, % of control [38]: 0% | level, % of control [39]: 100% | level, % of control [40]: 65% | level, % of control [41]: 0% | level, % of control [42]: 2.9%
